PubChem BioAssay AID651861 (The Scripps Research Institute Molecular Screening Center, 2012)

Experiments:
Assay in all cases: binding mode on PAD1, PAD2, PAD3, biochemical, colorimetric, substrate dialysis, late-stage follow-up (AID 651861)
[1] = target: Protein-arginine deiminase type-1 (Homo sapiens) (UniProt Q9ULC6); details: recombinant PAD1-3, post-dialysis BAEE citrulline colorimetric; PAD1; at 100 µM; hits give low values
[2] = target: Protein-arginine deiminase type-2 (Homo sapiens) (UniProt Q9Y2J8); details: recombinant PAD1-3, post-dialysis BAEE citrulline colorimetric; PAD2; at 100 µM; hits give low values
[3] = target: Protein-arginine deiminase type-3 (Homo sapiens) (UniProt Q9ULW8); details: recombinant PAD1-3, post-dialysis BAEE citrulline colorimetric; PAD3; at 100 µM; hits give low values
Chain of Protein-arginine deiminase type-3 (Homo sapiens) (Q9ULW8 whole entry, looked up): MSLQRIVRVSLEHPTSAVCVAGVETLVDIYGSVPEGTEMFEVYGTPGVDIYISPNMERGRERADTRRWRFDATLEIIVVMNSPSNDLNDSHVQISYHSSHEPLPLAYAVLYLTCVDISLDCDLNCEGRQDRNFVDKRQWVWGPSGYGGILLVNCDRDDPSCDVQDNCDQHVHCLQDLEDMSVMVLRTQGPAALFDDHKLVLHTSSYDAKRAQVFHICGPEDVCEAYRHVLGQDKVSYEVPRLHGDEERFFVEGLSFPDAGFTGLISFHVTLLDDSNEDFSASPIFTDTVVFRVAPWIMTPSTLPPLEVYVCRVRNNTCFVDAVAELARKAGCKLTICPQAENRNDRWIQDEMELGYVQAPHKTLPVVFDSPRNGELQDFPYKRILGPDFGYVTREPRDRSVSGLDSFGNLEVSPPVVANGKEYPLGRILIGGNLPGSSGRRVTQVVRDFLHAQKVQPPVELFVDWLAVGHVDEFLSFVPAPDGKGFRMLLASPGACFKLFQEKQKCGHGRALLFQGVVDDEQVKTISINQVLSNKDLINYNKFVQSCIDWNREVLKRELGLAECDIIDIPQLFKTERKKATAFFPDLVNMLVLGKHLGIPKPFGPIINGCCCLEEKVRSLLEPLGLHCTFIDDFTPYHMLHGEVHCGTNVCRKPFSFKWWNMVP

Chain of Protein-arginine deiminase type-2 (Homo sapiens) (Q9Y2J8 whole entry, looked up): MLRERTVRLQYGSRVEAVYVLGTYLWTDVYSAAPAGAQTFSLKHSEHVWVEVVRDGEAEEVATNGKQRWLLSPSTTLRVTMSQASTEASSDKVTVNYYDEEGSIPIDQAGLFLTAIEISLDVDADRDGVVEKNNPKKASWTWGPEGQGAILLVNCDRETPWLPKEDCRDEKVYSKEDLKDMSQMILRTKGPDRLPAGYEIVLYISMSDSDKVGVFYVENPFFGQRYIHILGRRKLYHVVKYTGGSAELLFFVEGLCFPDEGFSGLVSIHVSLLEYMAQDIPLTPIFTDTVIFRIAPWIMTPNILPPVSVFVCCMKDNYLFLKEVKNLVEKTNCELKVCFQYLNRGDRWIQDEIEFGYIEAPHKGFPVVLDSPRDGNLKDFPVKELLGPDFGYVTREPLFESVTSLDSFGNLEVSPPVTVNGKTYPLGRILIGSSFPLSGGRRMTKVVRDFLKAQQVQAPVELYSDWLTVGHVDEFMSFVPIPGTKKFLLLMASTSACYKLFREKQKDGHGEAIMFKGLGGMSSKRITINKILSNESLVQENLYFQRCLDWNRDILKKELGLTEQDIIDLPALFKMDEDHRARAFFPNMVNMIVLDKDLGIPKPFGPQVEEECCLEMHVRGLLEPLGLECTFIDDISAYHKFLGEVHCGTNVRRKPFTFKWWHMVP
Chain of Protein-arginine deiminase type-1 (Homo sapiens) (Q9ULC6 whole entry, looked up): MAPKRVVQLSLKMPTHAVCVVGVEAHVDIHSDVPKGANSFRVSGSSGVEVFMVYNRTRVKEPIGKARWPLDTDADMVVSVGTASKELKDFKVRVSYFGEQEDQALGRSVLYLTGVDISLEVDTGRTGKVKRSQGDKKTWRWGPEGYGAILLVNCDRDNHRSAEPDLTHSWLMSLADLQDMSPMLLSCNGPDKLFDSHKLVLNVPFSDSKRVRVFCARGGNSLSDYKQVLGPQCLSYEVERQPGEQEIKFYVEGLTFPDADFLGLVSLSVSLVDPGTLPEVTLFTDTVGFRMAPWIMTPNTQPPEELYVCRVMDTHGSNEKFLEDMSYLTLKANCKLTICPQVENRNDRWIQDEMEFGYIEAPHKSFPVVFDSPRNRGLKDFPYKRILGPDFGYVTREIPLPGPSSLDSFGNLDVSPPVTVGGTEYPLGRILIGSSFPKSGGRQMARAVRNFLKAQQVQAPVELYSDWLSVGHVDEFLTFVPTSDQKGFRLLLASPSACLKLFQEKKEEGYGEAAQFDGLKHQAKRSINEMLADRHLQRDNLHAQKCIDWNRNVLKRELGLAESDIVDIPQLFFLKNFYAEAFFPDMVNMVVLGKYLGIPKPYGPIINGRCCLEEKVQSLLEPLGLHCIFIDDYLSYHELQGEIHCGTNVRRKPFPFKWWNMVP

residual activity after dialysis [1]: 10.2% | residual activity after dialysis [2]: 5.3% | residual activity after dialysis [3]: 1.2%
SMILES: NC1=CC(=O)c2ccc(-c3cccc(C(=O)O)n3)nc2C1=O
